In PubChem BioAssay (NCI):
Several values for one entry are separate records, joined by “and”; a condition that tells them apart may be missing. Identical values can stand only once.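 All cell lines were grown in 96-well plates and treated with compound for 48 hours. GI50 marks 50% less growth. Definition used: TGI = concentration required for complete inhibition of growth.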

Experiments:
Experiment in all cases: growth of human tumour cells (NCI), 48 h
COLO 205 colon = system: COLO 205 colon
EKVX NSCLC = system: EKVX NSCLC
HOP-92 NSCLC = system: HOP-92 NSCLC
HS 578T breast = system: HS 578T breast
HT29 colon = system: HT29 colon
NCI-H226 lung = system: NCI-H226 lung
NCI-H23 lung = system: NCI-H23 lung
OVCAR-5 ovarian = system: OVCAR-5 ovarian
RXF 393 renal = system: RXF 393 renal
T-47D breast = system: T-47D breast

SMILES | GI50 (COLO 205 colon) | TGI (COLO 205 colon) | GI50 (EKVX NSCLC) | TGI (EKVX NSCLC) | GI50 (HOP-92 NSCLC) | TGI (HOP-92 NSCLC) | GI50 (HS 578T breast) | TGI (HS 578T breast) | GI50 (HT29 colon) | TGI (HT29 colon) | GI50 (NCI-H226 lung) | TGI (NCI-H226 lung) | GI50 (NCI-H23 lung) | TGI (NCI-H23 lung) | GI50 (OVCAR-5 ovarian) | TGI (OVCAR-5 ovarian) | GI50 (RXF 393 renal) | TGI (RXF 393 renal) | GI50 (T-47D breast) | TGI (T-47D breast)
CCCCCCCCCCCCNC(=O)[C@H]1CSC(c2cc(Br)cs2)N1 (some centres not stated) | 8.16 µM | 16 µM | 0.918 µM | 1.77 µM | 4.61 µM | 11.5 µM | 1.09 µM | 2.51 µM | 1.59 µM | 5.76 µM | 0.895 µM | 1.76 µM | 1.53 µM | 5.11 µM | 1.94 µM | 6.49 µM | 1.18 µM | 2.6 µM | 1.98 µM | 8.66 µM
O=C1C=CC(=O)c2c1cc1ccccc1c2O |  | 6.15 µM |  | 22.8 µM |  | 3.61 µM |  | 38.9 µM |  | 24 µM |  | 37.6 µM |  | 27.6 µM |  | 32.5 µM |  | 4.98 µM |  | 3.49 µM
O=C1c2ccccc2C(=O)c2c(NCCNCCO)ccc(NCCNCCO)c21 | 1.01 µM and 1.27 µM and 0.724 µM | 3 µM and 5.1 µM and 2.64 µM | 1.97 µM and 3.65 µM | 10.4 µM and 26.3 µM | 0.289 µM and 0.508 µM and 0.227 µM | 4.94 µM and 5.08 µM and 2.08 µM | 0.333 µM and 0.208 µM and 1.22 µM | 2.49 µM and 4.02 µM and 5.69 µM | 1.32 µM and 2.3 µM and 1.64 µM | 7.42 µM and 12.1 µM and 5.1 µM | 0.232 µM and 0.281 µM and 0.47 µM | 2.24 µM and 3.35 µM and 5.4 µM | 0.94 µM and 1.43 µM and 1.22 µM | 4.54 µM and 8.5 µM and 5.81 µM | 2.5 µM and 2.29 µM and 2.35 µM | 9.5 µM and 10.9 µM and 11.5 µM | 0.322 µM and 2.43 µM and 1.92 µM | 2 µM and 10.8 µM and 7.68 µM | 1.14 µM and 1.67 µM and 1.25 µM | 7.09 µM and 7.05 µM and 5.97 µM
COc1cccc(C(C#N)NC23CC4CC(CC(C4)C2)C3)c1 (configuration not stated) |  | > 100 µM |  | > 100 µM |  | > 100 µM |  | > 100 µM |  | > 100 µM |  | > 100 µM |  | > 100 µM |  | > 100 µM |  | > 100 µM |  | > 100 µM
Nc1ncnc2c1nc(N)n2C1OC(CO)C(O)C1O (configuration not stated) | 0.142 µM | 1.16 µM | 0.231 µM | 1.27 µM | 0.34 µM | 1.83 µM | 2.45 µM | > 28.4 µM | 0.0589 µM | 1.31 µM | 1.03 µM | 3.38 µM | 0.309 µM | 2.23 µM | 0.221 µM | 15.4 µM | 1.45 µM | 3.36 µM | 0.449 µM | 2.68 µM
COc1ccc(Oc2nc(Nc3ccc(N4CCOCC4)cc3)ncc2NC(=O)Nc2cc(OC)cc(OC)c2)cc1 | 5.27 µM | 14.7 µM | 7.56 µM | > 33.3 µM | 1.26 µM | 5.1 µM | 8 µM | > 33.3 µM | 1.42 µM | 6.69 µM | 3.84 µM | 11.8 µM | 2.69 µM | 23.4 µM | 11.6 µM | > 33.3 µM | 1.54 µM | 5.8 µM | 5.13 µM | > 33.3 µM
CCc1ccc(Oc2nccc(-c3c(-c4ccc(F)cc4)ncn3C3CCNCC3)n2)cc1 | 4.24 µM | 7.93 µM | 7.2 µM | 14.2 µM | 1.17 µM | 9.53 µM | 7.01 µM | 17.1 µM | 3.84 µM | 8.15 µM | 6.81 µM | 16.3 µM | 10.7 µM | 15.1 µM | 6.45 µM | 15.1 µM | 3.99 µM | 7.49 µM | 4.3 µM | 11.6 µM
O=C1NC(=O)C(N2CCc3ccccc32)=C1c1ccc(Cl)cc1 | > 25 µM | > 25 µM | > 24.1 µM | > 25 µM | 6.38 µM | > 25 µM | > 25 µM | > 25 µM | > 25 µM | > 25 µM | > 25 µM | > 25 µM | > 11.4 µM | > 25 µM | > 25 µM | > 25 µM | > 25 µM | > 25 µM | > 25 µM | > 25 µM
COc1ccc(/C=C/c2ccnc3ccccc23)cc1 |  | 31.1 µM |  | 25.8 µM |  | 16.5 µM |  | 48.8 µM |  | 23.1 µM |  | 38.2 µM |  | 30.6 µM |  | 36.5 µM |  | 35.4 µM |  | 37.4 µM
O=C1/C(=C\c2ccc([N+](=O)[O-])cc2)CS(=O)(=O)C/C1=C/c1ccc([N+](=O)[O-])cc1 | 0.252 µM | 0.983 µM and 0.645 µM | 0.348 µM | 4.95 µM | 0.258 µM | 0.656 µM and 6.43 µM | 0.447 µM | 39.4 µM | 0.127 µM | 0.382 µM and 2.77 µM | 0.163 µM |  | 0.252 µM | 0.651 µM and 5.12 µM | 0.126 µM |  |  | 1.45 µM | 0.446 µM | 2.95 µM
NC(Cn1ccc(=O)c(O)c1)C(=O)O (configuration not stated) |  | > 100 µM |  | > 100 µM |  | > 100 µM |  | > 100 µM |  | > 100 µM |  | > 100 µM |  | > 100 µM |  | > 100 µM |  | > 100 µM |  | > 100 µM
Cc1cc(NS(=O)(=O)c2ccc(NC(=O)COc3ccc(-c4cc5ccccc5[nH]4)cc3)cc2)no1 | 1.78 µM | 3.27 µM | 2.32 µM | 8.45 µM | 1.3 µM | 3.83 µM | 1.98 µM | 4.98 µM | 1.73 µM | 3.44 µM | 2.14 µM | 9.88 µM | 1.91 µM | 5 µM | 2.26 µM | 5.68 µM | 1.24 µM | 2.6 µM | 2.75 µM | 8.56 µM
[CH3][Sn]([CH3])([CH3])[O]C(=O)C(O)c1ccccc1 (configuration not stated) | 4.93 µM | 23.7 µM | 5.36 µM | 55.7 µM | 2.91 µM | 14.4 µM | 11.5 µM | 59.8 µM | 3.45 µM | 31.6 µM | 16.4 µM | 94 µM | 6.68 µM | 61.8 µM | 9.91 µM | 76.4 µM | 3 µM | 7.43 µM | 12.7 µM | > 100 µM
COc1ccc(-c2nnc(Nc3nc(O)c(C4=c5cc(OC(F)(F)F)ccc5=NC4=O)s3)o2)cc1 | 25.4 µM | > 100 µM | 31.6 µM | 71.7 µM | 15.7 µM | 43.5 µM | 38.3 µM | > 100 µM | 71.4 µM | > 100 µM | 17.4 µM | 38.1 µM | 14.1 µM | 30.6 µM | 18.2 µM | 43.6 µM | 13.9 µM | 29.1 µM | 69.8 µM | > 100 µM
O=C1c2cccc3cccc(c23)C(=O)N1CC#Cc1ccc2c3c(cccc13)C(=O)N(CCN1CCNCC1)C2=O | 3.3 µM | 12.4 µM | 15.7 µM | 39.7 µM | 4 µM | 20.5 µM | 11.2 µM | 33.7 µM | 2 µM | 3.96 µM | 20.3 µM | 52.3 µM | 2.38 µM | 5.74 µM | 2.82 µM | 10.3 µM | 2.7 µM | 10.4 µM | 2.03 µM | 5.11 µM
COc1cc(-c2ccc(Nc3ccccc3C(=O)O)c(OC)c2)ccc1Nc1ccccc1C(=O)O |  | > 100 µM |  | > 97.4 µM |  | 66.9 µM |  | > 100 µM |  | > 100 µM |  | 60.7 µM |  | 71 µM |  | > 87.5 µM |  | 83.3 µM |  | > 65.7 µM
O=c1c(-c2ccc3c(c2)OCO3)coc2c(CO)c(O)ccc12 | 20.9 µM | 45.5 µM | 2.79 µM | 8.81 µM | 2.02 µM | 4.86 µM | 2.28 µM | 7.12 µM | 16.9 µM | 44.8 µM | 1.81 µM | 4.46 µM | 4.87 µM | 24.5 µM | 3.3 µM | 10.5 µM | 0.941 µM | 2.29 µM | 2.48 µM | 14.9 µM
O=S(=O)(CC(O)C(Cl)(Cl)Cl)NNc1ccccc1 (configuration not stated) |  | > 100 µM |  | > 100 µM |  | > 100 µM |  | > 100 µM |  | > 100 µM |  | > 100 µM |  | > 100 µM |  | > 100 µM |  | > 100 µM |  | > 100 µM
CCN1CCN(CC(=O)Nc2nc3ccc(NCc4ccc(C)cc4)cc3s2)CC1 | 1.03 µM | 2.1 µM | 5.67 µM | 13.8 µM | 0.504 µM | 2.34 µM | 5.12 µM | 15.9 µM | 1.27 µM | 3.48 µM | 7.77 µM | 18.8 µM | 5.91 µM | 13.9 µM | 5.63 µM | 13.4 µM | 1.99 µM | 8.5 µM | 1.6 µM | 7.29 µM
O=C(O)CN(CC(=O)O)c1ccccc1 |  | > 100 µM |  | > 100 µM |  | > 100 µM |  | > 100 µM |  | > 100 µM |  | > 100 µM |  | > 100 µM |  | > 100 µM |  | > 100 µM |  | > 100 µM
CCCCCCCCn1ccc2cc(NC(=O)Cn3cc(CN4CCC(C)CC4)nn3)ccc21 | 1.82 µM | 3.46 µM | 1.67 µM | 3.66 µM | 1.16 µM | 2.57 µM | 1.6 µM | 4.12 µM | 1.73 µM | 3.32 µM | 1.75 µM | 3.83 µM | 2.04 µM | 4.34 µM | 1.63 µM | 3.42 µM | 1.5 µM | 3.08 µM | 1.76 µM | 4.08 µM
O=S1CCN(Cc2ccc(-c3ccc4ncnc(Nc5ccc(OCc6ccccc6)c(F)c5)c4c3)o2)CC1 | 4.42 µM | 10.6 µM | 0.212 µM | > 25 µM | 3.76 µM | 17.7 µM | 8.89 µM | > 25 µM | 5.21 µM | > 25 µM | 5.61 µM | 19.2 µM | 11.3 µM | > 25 µM | 13.9 µM | > 25 µM | 4.45 µM | 13.2 µM | 3.22 µM | > 19.2 µM
